Experimental data from ChEMBL document CHEMBL4477164, “Domino Synthesis of Embelin Derivatives with Antibacterial Activity” (2016).
Calls of active or inactive are those of the source. The rule behind the calls is not given here.

Legend:
Staphylococcus aureus [1] = assay: Antibacterial activity against vancomycin/methicillin-sensitive Staphylococcus aureus ATCC 25923 assessed as bacterial growth inhibition after 24 hrs by broth dilution method; format: functional; conditions: ATCC 25923, 24 h
Staphylococcus aureus [2] = assay: Antibacterial activity against vancomycin-intermediate/methicillin-resistant Staphylococcus aureus NRS402 assessed as bacterial growth inhibition after 24 hrs by broth dilution method; format: functional; conditions: NRS402, 24 h
Escherichia coli = assay: Antibacterial activity against Escherichia coli assessed as bacterial growth inhibition after 24 hrs by broth dilution method; format: functional, organism-based
Pseudomonas aeruginosa = assay: Antibacterial activity against Pseudomonas aeruginosa assessed as bacterial growth inhibition after 24 hrs by broth dilution method; format: functional, organism-based

For `CCCCCCCCCCCC1=C(O)C(=O)C2=C(OC(C)(C)[C@@H]3COc4ccc(Cl)cc4[C@H]23)C1=O` (relative stereo), the MIC (Staphylococcus aureus [1]) was 4 µM, the MIC (Staphylococcus aureus [2]) was 1 µM and the Activity (Escherichia coli) was “inactive”. The Activity (Pseudomonas aeruginosa) was “inactive”.

For `CCCCCCCCCCCC1=C(O)C(=O)C2=C(OC(C)(C)[C@@H]3COc4ccc(OCC=C(C)C)cc4[C@H]23)C1=O` (relative stereo), the MIC (Staphylococcus aureus [1]) was > 128 µM, the MIC (Staphylococcus aureus [2]) was > 128 µM and the Activity (Escherichia coli) was “inactive”. The Activity (Pseudomonas aeruginosa) was “inactive”.

With `CCCCCCCCCCCC1=C(O)C(=O)C2=C(OC(C)(C)[C@H]3CC[C@@H](C)[C@H]23)C1=O` (racemic) the MIC (Staphylococcus aureus [1]) was 64 µM, the MIC (Staphylococcus aureus [2]) was 4 µM and the Activity (Escherichia coli) was “inactive”. For the same molecule, the Activity (Pseudomonas aeruginosa) was “inactive”.

For `CCCCCCCCCCCC1=C(O)C(=O)C([C@H]2[C@H](C)CC[C@@H]2C(C)(C)OCC)=C(O)C1=O` (racemic), the MIC (Staphylococcus aureus [1]) was > 128 µM, the MIC (Staphylococcus aureus [2]) was > 128 µM and the Activity (Escherichia coli) was “inactive”. The Activity (Pseudomonas aeruginosa) was “inactive”.

For `CCCCCCCCCCCC1=C(O)C(=O)C2=C(OC(C)(C)[C@H]3COc4ccc(OCC=C(C)C)cc4[C@H]23)C1=O` (relative stereo), the MIC (Staphylococcus aureus [1]) was > 128 µM, the MIC (Staphylococcus aureus [2]) was > 128 µM and the Activity (Escherichia coli) was “inactive”. For the same molecule, the Activity (Pseudomonas aeruginosa) was “inactive”.

With `CCCCCCCCCCCC1=C(O)C(=O)C=C(O)C1=O` [EMBELIN] the MIC (Staphylococcus aureus [1]) was 32 µM, the MIC (Staphylococcus aureus [2]) was 16 µM and the Activity (Escherichia coli) was “inactive”. The Activity (Pseudomonas aeruginosa) was “inactive”.

For `C/C(=C\C(=O)OCCCCCCCCC(=O)O)C[C@@H]1OC[C@H](C[C@@H]2O[C@H]2[C@@H](C)[C@H](C)O)[C@@H](O)[C@H]1O` [MUPIROCIN], the MIC (Staphylococcus aureus [1]) was < 1 µg/mL and the MIC (Staphylococcus aureus [2]) was < 1 µg/mL.

In the case of `CCCCCCCCCCCC1=C(O)C(=O)C2=C(OC(C)(C)[C@H]3COc4ccc(Cl)cc4[C@H]23)C1=O` (relative stereo), the MIC (Staphylococcus aureus [1]) was 4 µM, the MIC (Staphylococcus aureus [2]) was 2 µM and the Activity (Escherichia coli) was “inactive”. For the same molecule, the Activity (Pseudomonas aeruginosa) was “inactive”.

In the case of `CCCCCCCCCCCC1=C(O)C(=O)C2=C(OC(C)(C)[C@H]3COc4cc(OC)ccc4[C@H]23)C1=O` (relative stereo), the MIC (Staphylococcus aureus [1]) was 64 µM, the MIC (Staphylococcus aureus [2]) was 4 µM and the Activity (Escherichia coli) was “inactive”. For the same molecule, the Activity (Pseudomonas aeruginosa) was “inactive”.

`Cc1onc(-c2ccccc2)c1C(=O)N[C@@H]1C(=O)N2[C@@H]1SC(C)(C)[C@@H]2C(=O)O` [OXACILLIN] was tested, and the MIC (Staphylococcus aureus [1]) was < 1 µg/mL and the MIC (Staphylococcus aureus [2]) was > 128 µg/mL.

With `CCCCCCCCCCCC1=C(O)C(=O)C2=C(OC(C)(C)[C@H]3CC[C@H](C)C[C@H]23)C1=O` the MIC (Staphylococcus aureus [1]) was 8 µM, the MIC (Staphylococcus aureus [2]) was 1 µM and the Activity (Escherichia coli) was “inactive”. For the same molecule, the Activity (Pseudomonas aeruginosa) was “inactive”.

With `CCCCCCCCCCCC1=C(O)C(=O)C2=C(OC(C)(C)[C@H]3COc4ccc(Br)cc4[C@H]23)C1=O` (relative stereo) the MIC (Staphylococcus aureus [1]) was 16 µM, the MIC (Staphylococcus aureus [2]) was 32 µM and the Activity (Escherichia coli) was “inactive”. The Activity (Pseudomonas aeruginosa) was “inactive”.

In the case of `CN[C@H](CC(C)C)C(=O)N[C@H]1C(=O)N[C@@H](CC(N)=O)C(=O)N[C@H]2C(=O)N[C@H]3C(=O)N[C@H](C(=O)N[C@H](C(=O)O)c4cc(O)cc(O)c4-c4cc3ccc4O)[C@H](O)c3ccc(c(Cl)c3)Oc3cc2cc(c3O[C@@H]2O[C@H](CO)[C@@H](O)[C@H](O)[C@H]2O[C@H]2C[C@](C)(N)[C@H](O)[C@H](C)O2)Oc2ccc(cc2Cl)[C@H]1O` [VANCOMYCIN], the MIC (Staphylococcus aureus [1]) was < 1 µg/mL.

In the case of `CCCCCCCCCCCC1=C(O)C(=O)C2=C(OC(C)(C)[C@@H]3COc4ccc(Br)cc4[C@H]23)C1=O` (relative stereo), the MIC (Staphylococcus aureus [1]) was 16 µM, the MIC (Staphylococcus aureus [2]) was 32 µM and the Activity (Escherichia coli) was “inactive”. The Activity (Pseudomonas aeruginosa) was “inactive”.

For `CCCCCCCCCCCC1=C(O)C(=O)C2=C(OC(C)(C)[C@@H]3COc4ccc5ccccc5c4[C@H]23)C1=O` (racemic), the MIC (Staphylococcus aureus [1]) was > 128 µM, the MIC (Staphylococcus aureus [2]) was > 128 µM and the Activity (Escherichia coli) was “inactive”. For the same molecule, the Activity (Pseudomonas aeruginosa) was “inactive”.

In the case of `CCCCCCCCCCCC1=C(O)C(=O)C2=C(OC(C)(C)[C@@H]3COc4cc(OC)ccc4[C@H]23)C1=O` (relative stereo), the MIC (Staphylococcus aureus [1]) was 8 µM, the MIC (Staphylococcus aureus [2]) was 1 µM and the Activity (Escherichia coli) was “inactive”. For the same molecule, the Activity (Pseudomonas aeruginosa) was “inactive”.
